Reference: patent US20230413824A1, “AGROCHEMICAL COMPOSITION COMPRISING 3-SUBSTITUTED PHENYLAMIDINE COMPOUNDS AND USE THEREOF” (PI INDUSTRIES LIMITED, priority 2020, published 2023)
Read-outs that look alike come from different tables or passages of the source.

Experiments:
Format in all cases: in vivo
Botrytis cinerea = Botrytis cinerea test in tomato (preventive, glasshouse); settings: single compound; for pest or weed control at 1 ppm: Conc. 1 ppm; for pest or weed control at 1 ppm / pest or weed control at 5 ppm / pest or weed control at 20 ppm / pest or weed control at 0.05 ppm / pest or weed control at 0.1 ppm: read-out: Observed Efficacy (%); for pest or weed control at 5 ppm: Conc. 5 ppm; for pest or weed control at 20 ppm: Conc. 20 ppm
Pyricularia oryzae = assay: whole plant or invertebrate; settings: for Observed Efficacy: single compound, preventive spray, rice; for pest or weed control at 1 ppm / pest or weed control at 5 ppm / pest or weed control at 20 ppm / pest or weed control at 0.05 ppm / pest or weed control at 0.1 ppm: Pyricularia oryzae, read-out: Observed Efficacy
Phakopsora pachyrhizi = Phakopsora pachyrhizi test in soybean (preventive, glasshouse); settings: single compound; for pest or weed control at 0.0001 ppm / pest or weed control at 0.001 ppm / pest or weed control at 0.01 ppm / pest or weed control at 0.1 ppm / pest or weed control at 0.05 ppm: Phakopsora pachyrhizi, read-out: Observed Efficacy (%)
Alternaria solani = Alternaria solani test in tomato (preventive, glasshouse); settings: for pest or weed control at 1 ppm / pest or weed control at 5 ppm / pest or weed control at 20 ppm / pest or weed control at 0.05 ppm / pest or weed control at 0.1 ppm: Alternaria solani; for pest or weed control at 1 ppm: Conc. 1 ppm; for pest or weed control at 5 ppm: Conc. 5 ppm; for pest or weed control at 20 ppm: Conc. 20 ppm
Erysiphe cichoracearum = Erysiphe cichoracearum test in cucumber (preventive, glasshouse); settings: single compound
Septoria nodorum = assay: Parastagonospora nodorum/Septoria nodorum/Stagnospora nodorum test in wheat (preventive, glasshouse); settings: single compound
Method: The single compounds or compound combinations were dissolved in 2% DMSO/Acetone and then mixed with water containing emulsifier to a calibrated spray volume of 50 mL. The spray solutions were poured into spray bottles for further applications.
To test the preventive activity of compounds, healthy young wheat plants, raised in the greenhouse, were sprayed with the single compound or mixture preparation at the stated application rates inside the spray cabinets using hollow cone nozzles. One day after treatment, the plants were inoculated with a suspension containing 2.8×10^6 Stagnospora nodorum inoculum. The inoculated plants were then kept in a greenhouse chamber at 22-25° C. temperature and 90-100% relative humidity for disease expression.
A visual assessment of the performance of the compounds and respective compound combinations was carried out by rating the disease severity (0-100% scale) on treated plants 3, 7 and 10 days after application. Efficacy (% control) of the compounds was calculated by comparing the disease rating in the treatment with the one of the untreated control. The compounds were also assessed for their plant compatibility by recording symptoms like necrosis, chlorosis & stunting. The results are shown for the compound of formula (I-1) to (I-5) in Table E1-E5.

[1] = Table F4, Conc. 0.05 ppm, Botrytis cinerea in tomato, preventive
[2] = Table F4, Conc. 0.1 ppm, Botrytis cinerea in tomato, preventive
[3] = Conc. 0.1 ppm, preventive spray on tomato, % control vs untreated
[4] = 0.05 ppm, preventive spray on soybean
[5] = 0.1 ppm, preventive spray on soybean
[6] = Conc. 0.05 ppm, soybean, preventive, Table D4
[7] = Conc. 0.05 ppm, soybean, preventive, Table D5
[8] = Conc. 0.1 ppm, soybean, preventive, Table D4
[9] = Conc. 0.1 ppm, soybean, preventive, Table D5
[10] = Table B3, single compound, Conc. 0.05 ppm, preventive
[11] = Table B3, single compound, Conc. 0.1 ppm, preventive
[12] = Table B4, single compound, Conc. 0.1 ppm, preventive
[13] = single compound, 0.05 ppm, preventive
[14] = single compound, 0.05 ppm, preventive spray
[15] = single compound, 0.1 ppm, preventive
[16] = single compound, 0.1 ppm, preventive spray
[17] = 0.1 ppm, preventive spray on cucumber
[18] = single compound, Conc. 0.05 ppm, preventive spray
[19] = Botrytis cinerea, preventive spray on tomato, % control vs untreated
[20] = single compound, preventive spray, read-out: Observed Efficacy
[21] = Golovinomyces cichoracearum, cucumber, preventive, read-out: Observed Efficacy (%)
[22] = Parastagonospora nodorum, read-out: Observed Efficacy (%)
[23] = Table F4, Botrytis cinerea in tomato, preventive
[24] = Table B4, single compound, preventive, read-out: Observed Efficacy (%)
[25] = Golovinomyces cichoracearum, preventive spray on cucumber, read-out: Observed Efficacy (%)
[26] = Botrytis cinerea, Conc. 0.05 ppm, preventive spray on tomato, % control vs untreated
[27] = Botrytis cinerea, Conc. 0.1 ppm, preventive spray on tomato, % control vs untreated
[28] = single compound, 0.05 ppm, preventive spray, read-out: Observed Efficacy (%)
[29] = single compound, 0.1 ppm, preventive spray, read-out: Observed Efficacy (%)
[30] = Parastagonospora nodorum, 0.1 ppm, read-out: Observed Efficacy (%)

Compound: Cn1cc(C(=O)Nc2cccc3c2[C@@H]2CC[C@H]3C2=C(Cl)Cl)c(C(F)F)n1 (racemic) [Benzovindiflupyr, benzovindiflupyr]
- Observed Efficacy (%) (Botrytis cinerea; [1]): 33%
- Observed Efficacy (%) (Botrytis cinerea; [2]): 42%
- Observed Efficacy (%) (Botrytis cinerea; Table F5, Conc. 0.1 ppm, Botrytis cinerea in tomato, preventive): 42%
- Observed Efficacy (%) (Botrytis cinerea; Conc. 0.05 ppm, preventive spray on tomato, % control vs untreated): 33%
- Observed Efficacy (%) (Botrytis cinerea; [3]): 42%
- Observed Efficacy (Pyricularia oryzae; Conc. 0.05 ppm): 17%
- Observed Efficacy (%) (Phakopsora pachyrhizi; [4]): 27%
- Observed Efficacy (%) (Phakopsora pachyrhizi; [5]): 38%
- Observed Efficacy (%) (Phakopsora pachyrhizi; [6]): 27%
- Observed Efficacy (%) (Phakopsora pachyrhizi; [7]): 27%
- Observed Efficacy (%) (Phakopsora pachyrhizi; [8]): 38%
- Observed Efficacy (%) (Phakopsora pachyrhizi; [9]): 38%
- Observed Efficacy (%) (Alternaria solani; [10]): 14%
- Observed Efficacy (%) (Alternaria solani; [11]): 29%
- Observed Efficacy (%) (Alternaria solani; Table B4, single compound, Conc. 0.05 ppm, preventive): 14%
- Observed Efficacy (%) (Alternaria solani; [12]): 29%
- Observed Efficacy (%) (Alternaria solani; [13]): 14%
- Observed Efficacy (%) (Alternaria solani; [14]): 14%
- Observed Efficacy (%) (Alternaria solani; [15]): 29%
- Observed Efficacy (%) (Alternaria solani; [16]): 29%
- Observed Efficacy (%) (Erysiphe cichoracearum; 0.05 ppm, cucumber, preventive): 24%
- Observed Efficacy (%) (Erysiphe cichoracearum; 0.05 ppm, preventive spray on cucumber): 24%
- Observed Efficacy (%) (Erysiphe cichoracearum; 0.1 ppm, cucumber, preventive): 29%
- Observed Efficacy (%) (Erysiphe cichoracearum; [17]): 29%
- Observed Efficacy (%) (Septoria nodorum; 0.05 ppm): 29%

Compound: CO/C=C(/C(=O)OC)c1ccccc1Oc1cc(Oc2ccccc2C#N)ncn1 [Azoxystrobin, azoxystrobin]
- Observed Efficacy (%) (Botrytis cinerea; [3]): 45%
- Observed Efficacy (Pyricularia oryzae; Conc. 0.05 ppm): 21%
- Observed Efficacy (Pyricularia oryzae; Conc. 0.1 ppm): 26%
- Observed Efficacy (%) (Phakopsora pachyrhizi; [4]): 15%
- Observed Efficacy (%) (Phakopsora pachyrhizi; [5]): 22%
- Observed Efficacy (%) (Phakopsora pachyrhizi; [6]): 15%
- Observed Efficacy (%) (Phakopsora pachyrhizi; [7]): 15%
- Observed Efficacy (%) (Phakopsora pachyrhizi; [8]): 22%
- Observed Efficacy (%) (Phakopsora pachyrhizi; [9]): 22%
- Observed Efficacy (%) (Alternaria solani; [10]): 33%
- Observed Efficacy (%) (Alternaria solani; [11]): 49%
- Observed Efficacy (%) (Alternaria solani; [13]): 33%
- Observed Efficacy (%) (Alternaria solani; [14]): 33%
- Observed Efficacy (%) (Alternaria solani; [15]): 49%
- Observed Efficacy (%) (Alternaria solani; [16]): 49%
- Observed Efficacy (Alternaria solani; [18]): 33%
- Observed Efficacy (Alternaria solani; single compound, Conc. 0.1 ppm, preventive spray): 49%
- Observed Efficacy (%) (Erysiphe cichoracearum; 0.1 ppm, cucumber, preventive): 50%
- Observed Efficacy (%) (Erysiphe cichoracearum; [17]): 50%
- Observed Efficacy (%) (Septoria nodorum; 0.05 ppm): 42%
- Observed Efficacy (%) (Septoria nodorum; 0.1 ppm): 47%

Compound: CCN(C)C=Nc1cc(Cl)cc(Cc2cccc(C)c2)c1C [Compound (I-1), N′-(5-chloro-2-methyl-3-(3-methylbenzyl)phenyl)-N-ethyl-N-methylformimidamide]
- pest or weed control at 1 ppm (Botrytis cinerea; [19]): 20%
- pest or weed control at 5 ppm (Botrytis cinerea; [19]): 27%
- pest or weed control at 20 ppm (Botrytis cinerea; [19]): 47%
- pest or weed control at 1 ppm (Pyricularia oryzae): 17%
- pest or weed control at 5 ppm (Pyricularia oryzae): 27%
- pest or weed control at 20 ppm (Pyricularia oryzae): 37%
- pest or weed control at 0.0001 ppm (Phakopsora pachyrhizi; 0.0001 ppm, preventive spray on soybean): 40%
- pest or weed control at 0.001 ppm (Phakopsora pachyrhizi; 0.001 ppm, preventive spray on soybean): 50%
- pest or weed control at 0.01 ppm (Phakopsora pachyrhizi; 0.01 ppm, preventive spray on soybean): 62%
- pest or weed control at 1 ppm (Alternaria solani; [20]): 20%
- pest or weed control at 5 ppm (Alternaria solani; [20]): 27%
- pest or weed control at 20 ppm (Alternaria solani; [20]): 40%
- pest or weed control at 1 ppm (Erysiphe cichoracearum; [21]): 13%
- pest or weed control at 5 ppm (Erysiphe cichoracearum; [21]): 33%
- pest or weed control at 20 ppm (Erysiphe cichoracearum; Golovinomyces cichoracearum, 20 ppm, cucumber, preventive, read-out: Observed Efficacy (%)): 57%
- pest or weed control at 1 ppm (Septoria nodorum; [22]): 17%
- pest or weed control at 5 ppm (Septoria nodorum; [22]): 20%
- pest or weed control at 20 ppm (Septoria nodorum; [22]): 43%

Compound: CCN(C)C=Nc1cc(C)cc(Cc2cccc(F)c2)c1C [Compound (I-4), N-ethyl-N′-(3-(3-fluorobenzyl)-2,5-dimethylphenyl)-N-methylformimidamide]
- pest or weed control at 1 ppm (Botrytis cinerea; [23]): 10%
- pest or weed control at 5 ppm (Botrytis cinerea; [23]): 17%
- pest or weed control at 20 ppm (Botrytis cinerea; [23]): 23%
- pest or weed control at 1 ppm (Pyricularia oryzae): 17%
- pest or weed control at 5 ppm (Pyricularia oryzae): 23%
- pest or weed control at 20 ppm (Pyricularia oryzae): 33%
- pest or weed control at 0.0001 ppm (Phakopsora pachyrhizi; Conc. 0.0001 ppm, soybean, preventive, Table D4): 43%
- pest or weed control at 0.001 ppm (Phakopsora pachyrhizi; Conc. 0.001 ppm, soybean, preventive, Table D4): 47%
- pest or weed control at 0.01 ppm (Phakopsora pachyrhizi; Conc. 0.01 ppm, soybean, preventive, Table D4): 59%
- pest or weed control at 1 ppm (Alternaria solani; [24]): 20%
- pest or weed control at 5 ppm (Alternaria solani; [24]): 27%
- pest or weed control at 20 ppm (Alternaria solani; [24]): 37%
- pest or weed control at 1 ppm (Erysiphe cichoracearum; [25]): 33%
- pest or weed control at 5 ppm (Erysiphe cichoracearum; [25]): 63%
- pest or weed control at 1 ppm (Septoria nodorum; [22]): 20%
- pest or weed control at 5 ppm (Septoria nodorum; [22]): 23%
- pest or weed control at 20 ppm (Septoria nodorum; [22]): 27%

Compound: CC1COC(Cn2cncn2)(c2ccc(Oc3ccc(Cl)cc3)cc2Cl)O1 (stereo not drawn) [Difenconazole, difenoconazole]
- pest or weed control at 0.05 ppm (Botrytis cinerea; [26]): 42%
- pest or weed control at 0.1 ppm (Botrytis cinerea; [27]): 52%
- Observed Efficacy (%) (Botrytis cinerea; [1]): 42%
- Observed Efficacy (%) (Botrytis cinerea; [2]): 52%
- pest or weed control at 0.05 ppm (Pyricularia oryzae): 24%
- pest or weed control at 0.1 ppm (Pyricularia oryzae): 26%
- pest or weed control at 0.1 ppm (Phakopsora pachyrhizi; [5]): 24%
- pest or weed control at 0.05 ppm (Phakopsora pachyrhizi; [6]): 17%
- Observed Efficacy (%) (Phakopsora pachyrhizi; [8]): 24%
- Observed Efficacy (%) (Phakopsora pachyrhizi; [9]): 24%
- pest or weed control at 0.05 ppm (Alternaria solani; [28]): 42%
- pest or weed control at 0.1 ppm (Alternaria solani; [29]): 47%
- pest or weed control at 0.05 ppm (Alternaria solani; single compound, Conc. 0.05 ppm, preventive spray, read-out: Observed Efficacy): 42%
- pest or weed control at 0.1 ppm (Alternaria solani; single compound, Conc. 0.1 ppm, preventive spray, read-out: Observed Efficacy): 47%
- Observed Efficacy (%) (Alternaria solani; [12]): 47%
- Observed Efficacy (%) (Alternaria solani; [13]): 42%
- Observed Efficacy (%) (Alternaria solani; [15]): 47%
- pest or weed control at 0.1 ppm (Septoria nodorum; [30]): 32%

Compound: Cn1cc(C(=O)Nc2ccccc2-c2cc(F)c(F)c(F)c2)c(C(F)F)n1 [Fluxapyroxad, fluxapyroxad]
- Observed Efficacy (%) (Botrytis cinerea; [3]): 38%
- Observed Efficacy (Pyricularia oryzae; Conc. 0.05 ppm): 24%
- Observed Efficacy (Pyricularia oryzae; Conc. 0.1 ppm): 32%
- Observed Efficacy (%) (Phakopsora pachyrhizi; [7]): 46%
- Observed Efficacy (%) (Phakopsora pachyrhizi; [9]): 59%
- Observed Efficacy (%) (Alternaria solani; [10]): 40%
- Observed Efficacy (%) (Alternaria solani; [11]): 56%
- Observed Efficacy (%) (Alternaria solani; [14]): 40%
- Observed Efficacy (%) (Alternaria solani; [16]): 56%
- Observed Efficacy (Alternaria solani; [18]): 40%
- Observed Efficacy (%) (Septoria nodorum; 0.05 ppm): 3%
- Observed Efficacy (%) (Septoria nodorum; 0.1 ppm): 5%

Compound: CON=C(C(=O)OC)c1ccccc1CON=C(C)c1cccc(C(F)(F)F)c1 [Trifloxystrobin, trifloxystrobin]
- pest or weed control at 0.05 ppm (Botrytis cinerea; [26]): 26%
- pest or weed control at 0.1 ppm (Botrytis cinerea; [27]): 33%
- Observed Efficacy (%) (Botrytis cinerea; [1]): 26%
- Observed Efficacy (%) (Botrytis cinerea; [2]): 33%
- pest or weed control at 0.05 ppm (Pyricularia oryzae): 24%
- pest or weed control at 0.1 ppm (Pyricularia oryzae): 32%
- pest or weed control at 0.1 ppm (Phakopsora pachyrhizi; [5]): 32%
- pest or weed control at 0.05 ppm (Phakopsora pachyrhizi; [6]): 22%
- Observed Efficacy (%) (Phakopsora pachyrhizi; [8]): 32%
- Observed Efficacy (%) (Phakopsora pachyrhizi; [9]): 32%
- pest or weed control at 0.05 ppm (Alternaria solani; [28]): 33%
- pest or weed control at 0.1 ppm (Alternaria solani; [29]): 40%
- Observed Efficacy (%) (Alternaria solani; [11]): 40%
- pest or weed control at 0.05 ppm (Septoria nodorum; Parastagonospora nodorum, 0.05 ppm, read-out: Observed Efficacy (%)): 5%
- pest or weed control at 0.1 ppm (Septoria nodorum; [30]): 18%
